Counter-ions that a name gives are not always drawn. Like-named read-outs stand apart in the source and are kept apart here.
Assays:
[1] = Comparative single dose toxicokinetic study in dogs, 30 minutes intravenous infusion; assay type: in vivo, beagle dogs; conditions: for half-life / AUC(0-t) / Tmax / Cmax: beagle, dog; for half-life / AUC(0-t) / Tmax / Cmax / Tlast: plasma; for half-life: intravenous, estimable in one animal only, read-out: half-life; for AUC(0-t) / Tmax / Cmax: iv; for AUC(0-t) / Tmax / Cmax / Tlast: mean, labelled analyte; for Cmax: read-out: Cmax; for increase of systemic exposure with increasing doses, assuming dose proportionality: increasing doses of melflufen-d5 (III) infusion (1.25 and 2.5 mg/kg)
Method: A comparative single dose toxicity study in dogs was carried out, comparing melflufen-d5 (III) and melflufen to investigate the toxicokinetics of melflufen and melflufen-d5 (III) and their metabolites, desethyl-melflufen and melphalan, after a single intravenous administration of melflufen-d5 (III) or melflufen as 30 minutes infusion in the dog.
This study aimed to compare the potential acute toxicity of melflufen-d5 (III) and melflufen. The toxicokinetics of melflufen-d5 (III), melflufen and their metabolites desethyl-melflufen and melphalan were evaluated after a single intravenous administration as 30 minutes infusion in dogs.
Melflufen-d5 (III) or melflufen were given as 30 minutes infusion to male and female dogs according to the following scheme:
Blood samples were collected from peripheral vein on Day 1 at pre-dose, 15 min, 30 min (just prior to end of infusion), 40 min, 1 h, 2 h, 4 h and 6 h after the start of infusion).
Blood samples were collected into heparinized collection tubes, put in an ice-water bath and immediately centrifuged (3 minutes, 10000 g, +4° C.). The obtained plasma was divided into two aliquots, placed into pre-chilled cryovials and in a freezer at −70° C. until analysis.
Toxicokinetic Calculations Plasma toxicokinetic analyses for melflufen-d5 (III), melflufen and their metabolites, desethyl-melflufen and melphalan were performed according to standard non-compartmental approach using Phoenix WinNonlin system (v. 6.3, Certara Company, USA).
After administration, Cmax, maximum concentration, and Tmax, time at which the maximum concentration was achieved, were read as the coordinates of the highest plasma concentration of the time course. Clast, last detectable concentration, and Tlast, time of the last detectable concentration, were reported as parameters.
The area under plasma concentration vs. time curve up to the last detectable concentration, AUClast, was calculated by the linear trapezoidal rule.
t1/2,z, the half-life of the terminal phase, was calculated by linear regression analysis of the natural-log concentration vs. time curve according to the formula: […]
AUC∞ the area under plasma concentration vs. time curve up to infinite time, was calculated by adding the portion of the area calculated as Clast/λz to AUClast assuming mono-exponential decay.

[2] = tested on: primary cultures of human tumour cells; conditions: panels of primary cultures of human tumour cells; cited from earlier work
[3] = 2-fold melflufen-d5 (III) dose increase (1.25 to 2.5 mg/kg), combined genders
[4] = both sexes, 1.25 mg/kg, group 2: melflufen-d5 (III) 1.25 mg/kg 30 min infusion, M + F combined
[5] = both sexes, 2.5 mg/kg, group 3: melflufen-d5 (III) 2.5 mg/kg 30 min infusion, M + F combined
[6] = both sexes, 2.5 mg/kg, group 4: melflufen 2.5 mg/kg 30 min infusion, M + F combined
[7] = female, 1.25 mg/kg, group 2: melflufen-d5 (III) 1.25 mg/kg 30 min infusion, females
[8] = female, 2.5 mg/kg, group 3: melflufen-d5 (III) 2.5 mg/kg 30 min infusion, females
[9] = female, 2.5 mg/kg, group 4: melflufen 2.5 mg/kg 30 min infusion, females
[10] = male, 1.25 mg/kg, group 2: melflufen-d5 (III) 1.25 mg/kg 30 min infusion, males
[11] = male, 2.5 mg/kg, group 3: melflufen-d5 (III) 2.5 mg/kg 30 min infusion, males
[12] = male, 2.5 mg/kg, group 4: melflufen 2.5 mg/kg 30 min infusion, males
[13] = group 2: melflufen-d5 (III) 1.25 mg/kg 30 min infusion, M + F combined
[14] = group 2: melflufen-d5 (III) 1.25 mg/kg 30 min infusion, females
[15] = group 2: melflufen-d5 (III) 1.25 mg/kg 30 min infusion, males
[16] = group 3: melflufen-d5 (III) 2.5 mg/kg 30 min infusion, M + F combined
[17] = group 3: melflufen-d5 (III) 2.5 mg/kg 30 min infusion, females
[18] = group 3: melflufen-d5 (III) 2.5 mg/kg 30 min infusion, males
[19] = group 4: melflufen 2.5 mg/kg 30 min infusion, M + F combined
[20] = group 4: melflufen 2.5 mg/kg 30 min infusion, females
[21] = group 4: melflufen 2.5 mg/kg 30 min infusion, males

N[C@@H](Cc1ccc(N(CCCl)CCCl)cc1)C(=O)N[C@@H](Cc1ccc(F)cc1)C(=O)O [desethyl-melflufen, (2S)-2-[[(2S)-2-amino-3-[4-[bis(2-chloroethyl)amino]phenyl]propanoyl]amino]-3-(4-fluorophenyl)propanoic acid]
increase of AUClast of the metabolite with dose [1, 3]: 3.5 fold
increase of Cmax of the metabolite with dose [1, 3]: 3.1 fold
exposure relative to the parent compound exposure ([1]; after melflufen-d5 (III) infusion): about one-half
half-life ([1]; 2.5 mg/kg, after melflufen 2.5 mg/kg (group 4)): 7 min
half-life ([1]; 2.5 mg/kg, after melflufen-d5 (III) 2.5 mg/kg): 5 min
AUC(0-t) [1, 4]: 0.0144 µM·h
Tmax [1, 4]: 30 min
Cmax [1, 4]: 33.2 nM
AUC(0-t) [1, 5]: 0.0506 µM·h
Tmax [1, 5]: 27.5 min
Cmax [1, 5]: 102 nM
AUC(0-t) [1, 6]: 0.0325 µM·h
Tmax [1, 6]: 27.5 min
Cmax [1, 6]: 71.4 nM
average exposure to the metabolite after infusion of melflufen compared with after infusion of melflufen-d5 (III) ([1]; each at 2.5 mg/kg): lower
AUC(0-t) [1, 7]: 0.0132 µM·h
Tmax [1, 7]: 30 min
Cmax [1, 7]: 30.8 nM
AUC(0-t) [1, 8]: 0.0358 µM·h
Tmax [1, 8]: 30 min
Cmax [1, 8]: 70.3 nM
AUC(0-t) [1, 9]: 0.0287 µM·h
Tmax [1, 9]: 25 min
Cmax [1, 9]: 60.5 nM
increase of systemic exposure with increasing doses, assuming dose proportionality [1]: slightly more than expected
no longer detectable after, post-dosing ([1]; labelled metabolite after 1.25-2.5 mg/kg melflufen-d5 (III) infusion): 40 to 60 min
time of maximal plasma concentration ([1]; labelled metabolite after 1.25 and 2.5 mg/kg melflufen-d5 (III) infusion (groups 2 and 3)): 15 to 30 min
AUC(0-t) [1, 10]: 0.0155 µM·h
Tmax [1, 10]: 30 min
Cmax [1, 10]: 35.6 nM
AUC(0-t) [1, 11]: 0.0655 µM·h
Tmax [1, 11]: 25 min
Cmax [1, 11]: 134 nM
AUC(0-t) [1, 12]: 0.0363 µM·h
Tmax [1, 12]: 30 min
Cmax [1, 12]: 82.2 nM
Tlast [1, 13]: 0.667 h
Tlast [1, 14]: 0.667 h
Tlast [1, 15]: 0.667 h
Tlast [1, 16]: 1.00 h
Tlast [1, 17]: 1.00 h
Tlast [1, 18]: 1.00 h
Tlast [1, 19]: 0.945 h
Tlast [1, 20]: 0.889 h
Tlast [1, 21]: 1.00 h

CCOC(=O)[C@H](Cc1ccc(F)cc1)NC(=O)[C@@H](N)Cc1ccc(N(CCCl)CCCl)cc1 [melflufen, L-Melphalanyl-4-fluoro-L-phenylalanine ethyl ester]
efficacy, fold higher than melphalan [2]: 50 to 100 fold
AUC(0-t) [1, 6]: 0.0433 µM·h
Tmax [1, 6]: 20 min
Cmax [1, 6]: 144 nM
average exposure to melflufen, fold lower than that to melflufen-d5 (III) ([1]; each at 2.5 mg/kg (group 4 vs group 3)): 2 fold
AUC(0-t) [1, 9]: 0.0539 µM·h
Tmax [1, 9]: 25 min
Cmax [1, 9]: 163 nM
AUC(0-t) [1, 12]: 0.0326 µM·h
Tmax [1, 12]: 15 min
Cmax [1, 12]: 124 nM
Tlast [1, 19]: 0.500 h
Tlast [1, 20]: 0.500 h
Tlast [1, 21]: 0.500 h
time of peak in plasma ([1]; melflufen infused for 30 minutes at 2.5 mg/kg (group 4)): 15 to 30 min

[2H]C([2H])([2H])C([2H])([2H])OC(=O)C(Cc1ccc(F)cc1)NC(=O)C(N)Cc1ccc(N(CCCl)CCCl)cc1 [melflufen-d5 (III), (^2H5)ethyl (2S)-2-[(2S)-2-amino-3-{4-[bis(2-chloroethyl)amino]phenyl}propanamido]-3-(4-fluorophenyl)propanoate hydrochloride]
increase of exposure with the dose in terms of peak and area under the curve ([1]; 2.5 vs 1.25 mg/kg melflufen-d5 (III) (2-fold dose increase), combined gender parameters): 2.7 fold
AUC(0-t) [1, 4]: 0.0336 µM·h
Tmax [1, 4]: 22.5 min
Cmax [1, 4]: 98.5 nM
AUC(0-t) [1, 5]: 0.0902 µM·h
Tmax [1, 5]: 22.5 min
Cmax [1, 5]: 253 nM
exposure after infusion of melflufen-d5 (III) compared to melflufen ([1]; equivalent doses): consistently higher
AUC(0-t) [1, 7]: 0.0296 µM·h
Tmax [1, 7]: 30 min
Cmax [1, 7]: 99.3 nM
AUC(0-t) [1, 8]: 0.0564 µM·h
Tmax [1, 8]: 20 min
Cmax [1, 8]: 159 nM
increase of systemic exposure with increasing doses, assuming dose proportionality [1]: slightly more than expected
AUC(0-t) [1, 10]: 0.0377 µM·h
Tmax [1, 10]: 15 min
Cmax [1, 10]: 97.7 nM
AUC(0-t) [1, 11]: 0.124 µM·h
Tmax [1, 11]: 25 min
Cmax [1, 11]: 346 nM
Tlast [1, 13]: 0.528 h
Tlast [1, 14]: 0.50 h
Tlast [1, 15]: 0.556 h
Tlast [1, 16]: 0.611 h
Tlast [1, 17]: 0.611 h
Tlast [1, 18]: 0.611 h
disappeared from plasma, time from start of dosing ([1]; melflufen-d5 (III) infused for 30 minutes at 1.25 and 2.5 mg/kg (groups 2 and 3)): ≤ 40 min

Source: patent publication US12152087B2, “Deuterated melflufen compounds” (Oncopeptides AB, priority 2018, dated 2024)
